A short description of series [1]: stability of the crystalline salt (stated property). It is filed as physicochemical. The settings on record: crystalline form.
Series [2] in a line: solubility of the crystalline salt (stated property). To be noted: crystalline form. The series is classed as physicochemical.

Structures are written as SMILES. Counter-ions that a name gives are not always drawn.

Consider `CC(C)(N)C(=O)N[C@H](COCc1ccc(F)cc1F)C(=O)N1CCC2=NN(CC(F)(F)F)C(=O)[C@]2(Cc2ccccn2)C1` [2-Amino-N-{1-(2,4-difluoro-benzyloxymethyl)-2-oxo-2-[3-oxo-3a-pyridin-2-ylmethyl-2-(2,2.2-trifluoro-ethyl)-2,3,3a,4,6,7-hexahydro-pyrazolo[4,3-c]pyridin-5-yl]-ethyl}-2-methyl-propionamide L-(+) tartrate], for which the stability entry in series [1] is on record as “good stability”. The solubility result in series [2] is “high solubility”.

The values are drawn from patent publication US6596867B2, “Tartrate salt of a substituted dipeptide as growth hormone secretagogue” (Pfizer Inc., priority 1997, dated 2003).
